According to ChEMBL document CHEMBL1151359, “Effects of Tetracyclic and Pentacyclic Triterpenoids on Growth of Phytophthora cactorum” (1981):
Active and inactive are the calls of the source. No cut-off for these calls is given here.

Assays:
Phytophthora cactorum [1] = test: Growth promotion activity in Phytophthora cactorum at 10 mg/L in liquid culture medium; type: functional, organism-based
Phytophthora cactorum [2] = test: Antifungal activity against Phytophthora cactorum at 10 mg/L in liquid culture medium; type: functional, organism-based
Phytophthora cactorum [3] = test: Growth promotion activity of Phytophthora cactorum assessed as mycelial dry weight at 10 mg/L after 18 days in liquid culture medium; type: functional
Phytophthora cactorum [4] = test: Growth promotion activity of Phytophthora cactorum assessed as mycelial dry weight at 10 mg/L after 12 days in liquid culture medium; type: functional
Phytophthora cactorum [5] = test: Effect on Phytophthora cactorum growth assessed as colony diameter at 10 mg/L after 6 days in solid culture medium; type: functional

Row | SMILES | Activity (Phytophthora cactorum [2]) | Activity (Phytophthora cactorum [5]) [mm] | further results
1 | C[C@H]1[C@H](C)CC[C@]2(C)CC[C@]3(C)C(=CC[C@@H]4[C@@]5(C)CC[C@H](O)C(C)(C)[C@@H]5CC[C@]43C)[C@H]12 | – | – | Activity (Phytophthora cactorum [1]): Active
2 | CC(=O)OC(C)(C)/C=C/C(=O)[C@](C)(O)[C@H]1[C@H](O)C[C@@]2(C)[C@@H]3CC=C4[C@@H](C=C(O)C(=O)C4(C)C)[C@]3(C)C(=O)C[C@]12C | Active | – | –
3 | CC(=O)OC(C)(C)/C=C/C(=O)[C@](C)(O)[C@H]1[C@H](O)C[C@@]2(C)[C@@H]3CC=C4[C@@H](C[C@H](O)C(=O)C4(C)C)[C@]3(CO)C(=O)C[C@]12C | Active | – | –
4 | C[C@H]1C(=O)CC[C@@H]2[C@]1(C)CC[C@H]1[C@@]2(C)CC[C@@]2(C)[C@@H]3CC(C)(C)CC[C@]3(C)CC[C@]12C | Active | – | –
5 | C=C(C)[C@@H]1CC[C@]2(C)CC[C@]3(C)[C@H](CC[C@@H]4[C@@]5(C)CCC(=O)C(C)(C)[C@@H]5CC[C@]43C)[C@@H]12 | Active | – | –
6 | CC[C@H](CC[C@@H](C)[C@H]1CC[C@H]2[C@@H]3CC=C4C[C@@H](O)CC[C@]4(C)[C@H]3CC[C@]12C)C(C)C [BETA-SITOSTEROL] | – | 35 | Activity (Phytophthora cactorum [3]): 200 mg; Activity (Phytophthora cactorum [4]): 125 mg
7 | C=C(C)[C@H]1CC[C@]2(C)[C@H]3CC[C@@H]4[C@@]5(C)CCCC(C)(C)[C@@H]5CC[C@@]4(C)[C@]3(C)CC[C@@H]12 | Active | 30 | –
8 | CC1(C)CC[C@]2(C)CC[C@]3(C)C(=CC[C@@H]4[C@@]5(C)CC[C@H](O)C(C)(C)[C@@H]5CC[C@]43C)[C@@H]2C1 [beta-AMYRIN] | – | 35 | Activity (Phytophthora cactorum [3]): 135 mg; Activity (Phytophthora cactorum [1]): Active
9 | CC(C)[C@H](C)CC[C@@H](C)[C@H]1CC[C@H]2[C@@H]3CC=C4C[C@@H](O)CC[C@]4(C)[C@H]3CC[C@]12C [CAMPESTEROL] | – | – | Activity (Phytophthora cactorum [3]): 200 mg; Activity (Phytophthora cactorum [4]): 125 mg
10 | CC(C)=CCC[C@@H](C)[C@H]1CC[C@@]2(C)C3=C(CC[C@]12C)[C@@]1(C)CC[C@H](O)C(C)(C)[C@@H]1CC3 [LANOSTEROL] | – | 30.5 | –
11 | C=C(C)[C@@H]1CC[C@]2(C)CC[C@]3(C)[C@H](CC[C@@H]4[C@@]5(C)CC[C@H](O)C(C)(C)[C@@H]5CC[C@]43C)[C@@H]12 [LUPEOL] | – | 29.5 | –
12 | CC(=O)OC(C)(C)/C=C/C(=O)[C@](C)(O)[C@H]1[C@H](O)C[C@@]2(C)[C@@H]3CC=C4[C@@H](CC[C@@H](O)C4(C)C)[C@]3(CO)C(=O)C[C@]12C [CUCURBITACIN C] | Active | 28 | –
13 | C=C(C)[C@@H]1CC[C@]2(CO)CC[C@]3(C)[C@H](CC[C@@H]4[C@@]5(C)CC[C@H](O)C(C)(C)[C@@H]5CC[C@]43C)[C@@H]12 [BETULIN] | – | 30.5 | –
14 | CC(C)(O)/C=C/C(=O)[C@](C)(O)[C@H]1[C@H](O)C[C@@]2(C)[C@@H]3CC=C4[C@@H](C[C@H](O)C(=O)C4(C)C)[C@]3(C)C(=O)C[C@]12C | Active | – | –
15 | CC(=O)OC(C)(C)/C=C/C(=O)[C@](C)(O)[C@H]1[C@H](O)C[C@@]2(C)[C@@H]3CC=C4[C@H](C[C@H](O)C(=O)C4(C)C)[C@]3(C)C(=O)C[C@]12C | Active | – | –
16 | CC(C)CCC[C@@H](C)[C@H]1CC[C@H]2[C@@H]3CC=C4C[C@@H](O)CC[C@]4(C)[C@H]3CC[C@]12C | – | – | Activity (Phytophthora cactorum [1]): Active
17 | CC1(C)CCC[C@]2(C)[C@H]3CC[C@@H]4[C@@]5(C)CC[C@H](O)C(C)(C)[C@@H]5CC[C@@]4(C)[C@]3(C)CC[C@@H]12 [TETRAHYMANOL] | – | – | Activity (Phytophthora cactorum [3]): 135 mg; Activity (Phytophthora cactorum [1]): Active
18 | CC(C)=CCC[C@@H](C)[C@H]1CC[C@@]2(C)[C@@H]3CC[C@H]4C(C)(C)[C@@H](O)CC[C@@]45C[C@@]35CC[C@]12C [CYCLOARTENOL] | – | 31 | –
19 | CC1(C)CC[C@]2(C(=O)O)CC[C@]3(C)C(=CC[C@@H]4[C@@]5(C)CC[C@H](O)C(C)(C)[C@@H]5CC[C@]43C)[C@@H]2C1 [OLEANOLIC_ACID] | – | 29 | –
